Test results taken from patent US10718769B2, “Compounds comprising one or more hydrophobic domains and a hydrophilic domain comprising peg moieties, useful for binding cells” (Roche Diagnostics Operations, Inc., priority 2013, dated 2020).
Values joined by “and” are separate entries in the source; they are usually repeats but may differ in a detail not shown here. Equal entries are not always repeated. Where two headings read alike, the source gives them in different places.

What was measured:
[1] = tested on: CHO; assay: Labelling of cells using compounds of the invention; format: cell-based
From the text: (§1) 2. Labelling of Cells Using Compounds of the Invention

[2] = tested on: COS 7; assay: as above; format: cell-based
From the text: as §1

[3] = tested on: Epithelial cells; assay: as above; format: cell-based
From the text: as §1

[4] = tested on: Hela; assay: as above; format: cell-based; conditions: * one cell stained weakly
From the text: as §1

[5] = tested on: Jurkats; assay: as above; format: cell-based
From the text: as §1

[6] = tested on: MDA-MB468; assay: as above; format: cell-based
From the text: as §1

[7] = tested on: NIH 3T3; assay: as above; format: cell-based; conditions: * one cell not stained
From the text: as §1

[8] = tested on: U937; assay: as above; format: cell-based
From the text: as §1

[9] = tested on: Jurkat cells; conditions: centrifugation 20 min, 500×g; within 5.5 h incubation with molecule
Protocol: Respective columns from left: 1: 10 min incubation with molecule. 2: 1 h incubation with molecule. 3: 3,5 h incubation with molecule. 4: 5.5 h min incubation with molecule. Following molecules were tested: 1255: 3′-(Myristic acid)2-PEG2000-dT-Biotin-TEG-5′ INVERS. 1234: 5′-(Cholesteryl-TEG)2-Spacer C18-dT-Biotin-TEG-3′; 1248: 3′-(Cholesteryl-TEG)2-PEG2000-Fluos-Biotin-TEG-5′ INVERS; 1254: 3′-(Cholesteryl-TEG)2-SpacerC18-Fluos-Biotin-TEG-5′ INVERS. […] Centrifugation characteristics: 20 min, 500×g.
(§2) Following molecules were tested: • 1255: 3′-(Myristic acid)2-PEG2000-dT-Biotin-TEG-5′ INVERS • 1234: 5′-(Cholesteryl-TEG)2-Spacer C18-dT-Biotin-TEG-3′ • 1248: 3′-(Cholesteryl-TEG)2-PEG2000-Fluos-Biotin-TEG-5′ INVERS • 1254: 3′-(Cholesteryl-TEG)2-SpacerC18-Fluos-Biotin-TEG-5′ INVERS
(§3) Centrifugation characteristics: 20 min, 500×g.

[10] = tested on: MDA-MB468 cells; conditions: centrifugation 20 min, 500×g; within 5 h incubation with molecule
Protocol: Respective columns from left: 1: 10 min incubation with molecule. 2: 1 h incubation with molecule. 3: 3 h incubation with molecule. 4: 5 h min incubation with molecule. Following compounds for use according to the invention were tested: 1234: 5′-(Cholesteryl-TEG)2-Spacer C18-dT-Biotin-TEG-3′; 1255: 3′-(Myristic acid)2-PEG2000-dT-Biotin-TEG-5′ INVERS. […] Centrifugation characteristics: 20 min, 500×g.
Following compounds of the invention were tested: • 1234: 5′-(Cholesteryl-TEG)2-Spacer C18-dT-Biotin-TEG-3′ • 1255: 3′-(Myristic acid)2-PEG2000-dT-Biotin-TEG-5′ INVERS
as §3

[11] = tested on: WBC; assay: Immobilization of cells, recovery rate of cells (Example 3 A and D); format: cell-based; conditions: WBCs
Protocol: In the following experiment, the recovery rate of cells was determined.

[12] = tested on: white blood cells (WBCs); conditions: for WBC per well: 300 000 WBCs/well
Protocol: Aim of this experiment: Testing of the white blood cell immobilization on a streptavidin-coated surface using different molecules of the invention. In particular, the performance of a single cholesterol-molecule and different dual-linker molecules (i.e. containing two hydrophobic moieties) was tested. In detail, immobilization of white blood cells (WBCs) on a Streptavidin-coated surface using different linker molecules was tested on a 12-well plate: 300 000 WBCs/well. This was followed by the measurement of the cell recovery rate after immobilization and washing of the cells using the Cellavista instrument (10× Nuclei Operator s9s5).

[13] = tested on: WBC; assay: WBC recovery rate after centrifugation (stabilization of cells, Example 5); format: cell-based; conditions: centrifugation 20 min
Protocol: (§4) Centrifugation characteristics: 10 min, 300×g.
as §4
The respective left, middle and right columns per assay represent different Experimenters 1, 2 and 3. […] Centrifugation characteristics: 10 min, 300×g. Molecule: Cholesteryl-TEG-Cholesteryl-TEG-(SpacerC18)7-Fluos-Biotin-TEG.
(§5) Following molecules were tested: 1234: 5′-(Cholesteryl-TEG)2-Spacer C18-dT-Biotin-TEG-3′; 1248: 3′-(Cholesteryl-TEG)2-PEG2000-Fluos-Biotin-TEG-5′ INVERS; 1254: 3′-(Cholesteryl-TEG)2-SpacerC18-Fluos-Biotin-TEG-5′ INVERS; 1255: 3′-(Myristic acid)2-PEG2000-dT-Biotin-TEG-5′ INVERS. […] Centrifugation characteristics: 20 min, 300×g. Respective left column: 10 min incubation with molecule. Respective middle column: 1 h min incubation with molecule. Respective right column: 2 h incubation with molecule.
Following molecules were tested: 1255: 3′-(Myristic acid)2-PEG2000-dT-Biotin-TEG-5′ INVERS; 1234: 5′-(Cholesteryl-TEG)2-Spacer C18-dT-Biotin-TEG-3′; 1248: 3′-(Cholesteryl-TEG)2-PEG2000-Fluos-Biotin-TEG-5′ INVERS; 1254: 3′-(Cholesteryl-TEG)2-SpacerC18-Fluos-Biotin-TEG-5′ INVERS. […] Centrifugation characteristics: 20 min, 500×g. Respective left column: 10 min incubation with molecule. Respective middle column: 1 h min incubation with molecule. Respective right column: 3 h incubation with molecule.
as §5, with “tested: 1255: 3′-(Myristic acid)2-PEG2000-dT-Biotin-TEG-5′ INVERS;” for “tested:”, “3′-(Cholesteryl-TEG)2-SpacerC18-Fluos-Biotin-TEG-5′” for “3′-(Cholesteryl-TEG)2-SpacerC18-Fluos-Biotin-TEG-5′ INVERS; 1255: 3′-(Myristic acid)2-PEG2000-dT-Biotin-TEG-5′”, “1000×g.” for “300×g.”
The effect of compounds of the invention on stabilizing cells and on immobilization was determined.
Centrifugation characteristics: 10 min, 300×g. A: Choleseryl-TEG-Cholesteryl-TEG-(SpacerC18)7-Fluos-Biotin-TEG.
Centrifugation characteristics: 10 min, 300×g. Molecule: Cholesteryl-TEG-Cholesteryl-TEG-(SpacerC18)7-Fluos-Biotin-TEG.
Centrifugation characteristics: 20 min, 300×g.
as §2

[14] = tested on: WBCs; assay: Labelling of cells using compounds of the invention; format: cell-based
From the text: as §1

[15] = Sample 2, compound concentration: 100 pmol/10e6 WBCs
[16] = Sample 2, compound concentration: 1 nmol/10e6 WBCs

| Compound | Labelling (staining) of CHO [1] | Labelling (staining) of COS 7 [2] | Labelling (staining) of Epithelial cells [3] | Labelling (staining) of Hela [4] | Labelling (staining) of Jurkats [5] | Labelling (staining) of MDA-MB468 [6] | Labelling (staining) of NIH 3T3 [7] | Labelling (staining) of U937 [8] | Stability of Jurkat culture cells during centrifugation [9] | other results |
| --- | --- | --- | --- | --- | --- | --- | --- | --- | --- | --- |
| 5′-CholesterylTEG-CholesterylTEG-PEG2000-Fluos-3′ [BMO 29.891133] | √ | √ | √ | √ | √ | √ | √ | √ |  |  |
| CCCCCCCCCCCCCCCCCCCCCC[N+]1=C(/C=C/C=C2/N(CCCCCCCCCCCCCC)c3ccccc3C2(C)C)C(C)(C)c2ccccc21.[I-] [PKH26] | √ | √ | √ not all | √* | √ | √ | √ | √ |  |  |
| 5′-(Cholesteryl-TEG)2-Spacer C18-dT-Biotin-TEG-3′ [compound 1234] |  |  |  |  |  |  |  |  | stable during centrifugation processes | Stability of MDA-MB468 culture cells during centrifugation [10]: stable during centrifugation processes |
| 5′-CholesterylTEG-CholesterylTEG-PEG2000-Fluos-BiotinTEG-3′ [BMO 29.891180] |  |  |  |  |  |  |  |  |  | staining (Remarks) [11]: strong |
| CCCCC/C=C\C/C=C\CCCCCCCCN1C(=CC=CC2=[N+](CCCCCCCC/C=C\C/C=C\CCCCC)c3ccccc3C2(C)C)C(C)(C)c2ccccc21.[O-][Cl+3]([O-])([O-])[O-] [Linol, 1,1′-dilinoleyl-3,3,3′,3′-tetramethylindocarbocyanine perchlorate] | √ | √ | √ | √ | √ | √ | √ | √ |  |  |
| 5′-(Cholesteryl-TEG)2-Spacer C18-Fluos-Biotin_TEG-3′ INVERS [29.891254] |  |  |  |  |  |  |  |  | stable during centrifugation processes | WBC per well ([12]; Sample 1, first block of the table (r4-r12), footnote: 1 nmol/10e6 WBCs): 157660 and 190148 and 170850; WBC per well ([12]; Sample 1, second block of the table (r13-r21), compound concentration: 1 nmol/10e6 WBCs): 244649 and 234262 and 260760; Mean (WBC per well) [12, 15]: 197067.00; WBC per well [12, 15]: 200184 and 205917 and 185100; Mean (WBC per well) [12, 16]: 245376.00; WBC per well [12, 16]: 244396 and 244304 and 247428 |
| 3′-(Myristic acid)2-PEG2000-dT-Biotin-TEG-5′ INVERS [compound 1255] |  |  |  |  |  |  |  |  | stable during centrifugation processes | Performance in WBC recovery rate after centrifugation (ranking) ([13]; 300×g): followed by compound 1255; Performance in WBC recovery rate after centrifugation (ranking) ([13]; 500×g): followed by molecule 1255; Stability of MDA-MB468 culture cells during centrifugation [10]: stable during centrifugation processes |
| CCCCCCCCCCCCCCCCCCN1C(=CC=CC2=[N+](CCCCCCCCCCCCCCCCCC)c3ccccc3C2(C)C)C(C)(C)c2ccccc21.[O-][Cl+3]([O-])([O-])[O-] [1,1′-Dioctadecyl-3,3,3′,3′-tetramethylindocarbocyanin perchlorate] | √ | √ | √ | √ | √ | √ | √* | √ |  | Labelling (staining) of WBCs [14]: √ not all |
